Measured values from US20220273713A1, “METHOD OF INHIBITING OR ACTIVATING GAMMA DELTA T CELLS” (The University of Melbourne, priority 2019, published 2022).
Several values for one entry are separate records, joined by “and”; a condition that tells them apart may be missing. Identical values can stand only once.

Columns and labels:
Vγ9Vδ2 cells = assay: Luminex (Vγ9Vδ2): cytokine/chemokine secretion by pre-expanded Vγ9Vδ2 cells; assay type: cell-based, human; conditions: 16 hrs, antibodies 10 μg/ml, Zoledronic acid 4 μM, HMBPP 0.5 ng/ml, duplicates, 0 set to 0.1;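 also: Vγ9Vδ2 cells purified from PBMC, activated 48 h with CD3 and CD28 plus IL-2, expanded 14 days in IL-2, then thawed and rested overnight in IL-2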
[1] = biological target: G115 Vγ9Vδ2+ γδTCR, wild type, on cells; assay: flow cytometry, tetramer-PE versus anti-CD3ε-APC on Jurkat G115 Vγ9Vδ2+ γδTCR cells
[2] = tested on: in vitro pre-expanded CD3+Vδ2+ γδ T cells; assay: HMBPP or anti-CD3/anti-CD28 activation of purified in vitro-expanded Vδ2+ T cells ± neutralizing anti-BTN2A1 mAb; assay type: cell-based, human; conditions: HMBPP 0.5 ng/ml, 10 μg/ml neutralizing anti-BTN2A1 mAb, no APCs
Method: CD25 expression was determined by flow cytometry, and IFN-γ concentration was determined by cytometric bead array (BD Bioscience) as per manufacturer instructions.

[3] = γδT cells from patient 1 (melanoma patient)

With `O=P(O)(O)C(O)(Cn1ccnc1)P(=O)(O)O` [Zoledronate, zoledronate, reference compound] the GMCSF (Vγ9Vδ2 cells; γδT cells from a healthy donor) was 254.29 pg/mL and 268.62 pg/mL, the ICAM-1 (Vγ9Vδ2 cells; γδT cells from a healthy donor) was 490.35 pg/mL and 504.11 pg/mL and the IFNγ (Vγ9Vδ2 cells; γδT cells from a healthy donor) was 58.38 pg/mL and 58.97 pg/mL. The IL-4 (Vγ9Vδ2 cells; γδT cells from a healthy donor) was 0.1 pg/mL, the IL-8 (Vγ9Vδ2 cells; γδT cells from a healthy donor) was 0.1 pg/mL and the IL-13 (Vγ9Vδ2 cells; γδT cells from a healthy donor) was 5.22 pg/mL and 4.43 pg/mL. The IL-17A (Vγ9Vδ2 cells; γδT cells from a healthy donor) was 0.1 pg/mL, the MIP-1a (Vγ9Vδ2 cells; γδT cells from a healthy donor) was 121.61 pg/mL and 125.27 pg/mL and the MIP-1b (Vγ9Vδ2 cells; γδT cells from a healthy donor) was 1280.91 pg/mL and 1334.19 pg/mL. For the same molecule, the TNFα (Vγ9Vδ2 cells; γδT cells from a healthy donor) was 13.03 pg/mL and 13.02 pg/mL, the sE-selectin (Vγ9Vδ2 cells; γδT cells from a healthy donor) was 190.9 pg/mL and the sP-Selectin (Vγ9Vδ2 cells; γδT cells from a healthy donor) was 200.54 pg/mL and 313.85 pg/mL. For the same molecule, the GMCSF (Vγ9Vδ2 cells; [3]) was 650.17 pg/mL and 619.93 pg/mL, the ICAM-1 (Vγ9Vδ2 cells; [3]) was 968.87 pg/mL and 888.51 pg/mL and the IFNγ (Vγ9Vδ2 cells; [3]) was 175.86 pg/mL and 171.42 pg/mL. The IL-4 (Vγ9Vδ2 cells; [3]) was 7.43 pg/mL and 7.68 pg/mL, the IL-8 (Vγ9Vδ2 cells; [3]) was 0.1 pg/mL and the IL-13 (Vγ9Vδ2 cells; [3]) was 235.43 pg/mL and 219.81 pg/mL. The IL-17A (Vγ9Vδ2 cells; [3]) was 3.5 pg/mL and 4.08 pg/mL, the MIP-1a (Vγ9Vδ2 cells; [3]) was 274.25 pg/mL and 273.85 pg/mL and the MIP-1b (Vγ9Vδ2 cells; [3]) was 5061.49 pg/mL and 4756.68 pg/mL. For the same molecule, the TNFα (Vγ9Vδ2 cells; [3]) was 105.84 pg/mL and 102.44 pg/mL, the sE-selectin (Vγ9Vδ2 cells; [3]) was 259.01 pg/mL and 287.88 pg/mL and the sP-Selectin (Vγ9Vδ2 cells; [3]) was 1239.34 pg/mL and 1299.54 pg/mL.

“BTN2A1 tetramer-PE (biotinylated BTN2A1 ectodomain tetramerized with streptavidin-PE) (ligand)” was tested, and the cells in the BTN2A1 tetramer+ gate (%) [1] was 100%.

“Glycosylated BTN2A1 tet. (simple glycans) (from UniProt Q7KYR7) (ligand)” gave a cells in the BTN2A1 tetramer+ gate (%) [1] of 100%.

B1: clone 236: neutralizing anti-BTN2A1 mAb; VH SEQ ID NO: 116, VL SEQ ID NO: 117 (antibody, V domains shown)
VH: EVQLLESGGGLVQPGGSLRLSCAASGFTFSHYSMSWVRQAPGKGLEWVSGISSSGGFTPYADSVKGRFTISRDNSKNTLYLQMNSLRAEDTAVYYCTGGSGFDIWGQGTMVTVSS
VL: DIQMTQSPSTLSVSVGDRVTITCRASQTISSWLAWFQQKPGQAPKLLIYRASTLETGVPSRFSGSESGTTFTLTINGLQPDDLATYYCQQYATFPWTFGQGTKVEVK
modifications: amino acid sequence of clone 236 VH; amino acid sequence of clone 236 VL
With B1 the “HMBPP-induced activation (CD25 upregulation, IFN-γ production)” value [2] was “failed to upregulate CD25 and produce IFN-γ”.
